Assay results reported in patent US10597388B2, “Pyridazinone herbicides” (FMC CORPORATION, priority 2014, dated 2020).

Assays:
Assay in all cases: Test E greenhouse herbicide test, pre- and postemergence
Type in all cases: in vivo
[1] = tested on: velvetleaf (Abutilon theophrasti); settings: Preemergence
Outline: (§1)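 Compounds in surfactant-containing solvent are applied to soil right after sowing (silt loam) and, in parallel, to 1- to 4-leaf plants in a peat-based medium. Weed control is scored visually on a 0 (none) to 100 (complete) scale at 14 to 21 d.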

[2] = tested on: wild poinsettia (Euphorbia heterophylla)
Outline: as §1

soybean (Glycine max) = tested on: soybean (Glycine max)
Outline: as §1

[3] = tested on: foxtail, green (green foxtail, Setaria viridis); settings: Preemergence
Outline: as §1

corn (Zea mays) = tested on: corn (Zea mays)
Outline: as §1

[4] = tested on: barnyardgrass (Echinochloa crus-galli)
Outline: as §1

[5] = tested on: arrowleaf sida (Sida rhombifolia)
Outline: as §1

[6] = tested on: dayflower (Virginia (VA) dayflower, Commelina virginica)
Outline: as §1

[7] = tested on: Italian ryegrass (Lolium multiflorum)
Outline: as §1

[8] = tested on: momingglory (Ipomoea coccinea); settings: Preemergence
Outline: as §1

[9] = tested on: lambsquarters (Chenopodium album); settings: Preemergence
Outline: as §1

[10] = tested on: pigweed, palmer (palmer pigweed, Amaranthus palmeri)
Outline: as §1

[11] = tested on: nutsedge, yellow (yellow nutsedge, Cyperus esculentus); settings: Preemergence
Outline: as §1

[12] = tested on: johnsongrass (Sorghum halepense); settings: Preemergence
Outline: as §1

[13] = 62 g ai/ha, scale 0 to 100 (0 no effect, 100 complete control)
[14] = 125 g ai/ha, scale 0 to 100 (0 no effect, 100 complete control)
[15] = 31 g ai/ha, scale 0 to 100, 0 no effect, 100 complete control
[16] = 250 g ai/ha, visual, scale 0 no effect to 100 complete control
[17] = 62 g ai/ha, Postemergence, scale 0 to 100 (0 no effect, 100 complete control)
[18] = 62 g ai/ha, Preemergence, scale 0 to 100 (0 no effect, 100 complete control)
[19] = 125 g ai/ha, Postemergence, scale 0 to 100 (0 no effect, 100 complete control)
[20] = 125 g ai/ha, Preemergence, scale 0 to 100 (0 no effect, 100 complete control)
[21] = 250 g ai/ha, Postemergence, scale 0 to 100 (0 no effect, 100 complete control)
[22] = Postemergence, 31 g ai/ha, visual, scale 0 no effect to 100 complete control
[23] = Preemergence, 31 g ai/ha, scale 0 to 100, 0 no effect, 100 complete control
[24] = Preemergence, 250 g ai/ha, visual, scale 0 no effect to 100 complete control

Cc1ccc2ccccc2c1-c1c(OC(=O)OC(C)C)c(C)nn(C)c1=O [Compound 72]
30: Plant response rating, Poinsettia, Wild [2, 22] | Plant response rating, Soybean (soybean (Glycine max); [17]) | Plant response rating, Soybean (soybean (Glycine max); [19]) | Plant response rating, Foxtail, Green [3, 15] | Plant response rating, Corn (corn (Zea mays); [21]) | Plant response rating, Barnyardgrass [4, 18] | Plant response rating, Barnyardgrass [4, 22] | Plant response rating, Morningglory [8, 13] | Plant response rating, Nutsedge, Yellow [11, 14]
100: Plant response rating, Ryegrass, Italian [7, 20] | Plant response rating, Ryegrass, Italian [7, 24] | Plant response rating, Lambsquarters [9, 14] | Plant response rating, Lambsquarters [9, 16]
80: Plant response rating, Velvetleaf [1, 14] | Plant response rating, Arrowleaf Sida [5, 19] | Plant response rating, Dayflower, VA [6, 19] | Plant response rating, Dayflower, VA [6, 21] | Plant response rating, Ryegrass, Italian [7, 17] | Plant response rating, Ryegrass, Italian [7, 22] | Plant response rating, Morningglory [8, 14] | Plant response rating, Lambsquarters [9, 13]
90: Plant response rating, Velvetleaf [1, 16] | Plant response rating, Arrowleaf Sida [5, 21] | Plant response rating, Ryegrass, Italian [7, 18] | Plant response rating, Ryegrass, Italian [7, 21] | Plant response rating, Ryegrass, Italian [7, 23] | Plant response rating, Lambsquarters [9, 15] | Plant response rating, Pigweed, Palmer [10, 24]
25: Plant response rating, Soybean (soybean (Glycine max); [22])
85: Plant response rating, Arrowleaf Sida [5, 20] | Plant response rating, Ryegrass, Italian [7, 19]
75: Plant response rating, Poinsettia, Wild [2, 21] | Plant response rating, Arrowleaf Sida [5, 17] | Plant response rating, Pigweed, Palmer [10, 18] | Plant response rating, Pigweed, Palmer [10, 21]
70: Plant response rating, Foxtail, Green [3, 16] | Plant response rating, Arrowleaf Sida [5, 22]
95: Plant response rating, Morningglory [8, 16] | Plant response rating, Pigweed, Palmer [10, 20]
65: Plant response rating, Poinsettia, Wild [2, 19] | Plant response rating, Foxtail, Green [3, 14] | Plant response rating, Arrowleaf Sida [5, 24] | Plant response rating, Dayflower, VA [6, 17]
20: Plant response rating, Poinsettia, Wild [2, 24] | Plant response rating, Corn (corn (Zea mays); [19]) | Plant response rating, Arrowleaf Sida [5, 23] | Plant response rating, Morningglory [8, 15] | Plant response rating, Nutsedge, Yellow [11, 13]
60: Plant response rating, Dayflower, VA [6, 22] | Plant response rating, Pigweed, Palmer [10, 19]
15: Plant response rating, Poinsettia, Wild [2, 18] | Plant response rating, Soybean (soybean (Glycine max); [24]) | Plant response rating, Dayflower, VA [6, 18]
40: Plant response rating, Velvetleaf [1, 13] | Plant response rating, Poinsettia, Wild [2, 17] | Plant response rating, Barnyardgrass [4, 17] | Plant response rating, Barnyardgrass [4, 19]
50: Plant response rating, Velvetleaf [1, 15] | Plant response rating, Soybean (soybean (Glycine max); [21]) | Plant response rating, Barnyardgrass [4, 20] | Plant response rating, Barnyardgrass [4, 21] | Plant response rating, Barnyardgrass [4, 24] | Plant response rating, Dayflower, VA [6, 20] | Plant response rating, Dayflower, VA [6, 24] | Plant response rating, Pigweed, Palmer [10, 17] | Plant response rating, Pigweed, Palmer [10, 22]
0: Plant response rating, Poinsettia, Wild [2, 23] | Plant response rating, Soybean (soybean (Glycine max); [18]) | Plant response rating, Soybean (soybean (Glycine max); [20]) | Plant response rating, Soybean (soybean (Glycine max); [23]) | Plant response rating, Corn (corn (Zea mays); [18]) | Plant response rating, Corn (corn (Zea mays); [20]) | Plant response rating, Corn (corn (Zea mays); [22]) | Plant response rating, Corn (corn (Zea mays); [23]) | Plant response rating, Corn (corn (Zea mays); [24]) | Plant response rating, Barnyardgrass [4, 23] | Plant response rating, Dayflower, VA [6, 23] | Plant response rating, Johnsongrass [12, 13] | Plant response rating, Johnsongrass [12, 15]
10: Plant response rating, Poinsettia, Wild [2, 20] | Plant response rating, Corn (corn (Zea mays); [17])
35: Plant response rating, Foxtail, Green [3, 13] | Plant response rating, Arrowleaf Sida [5, 18] | Plant response rating, Pigweed, Palmer [10, 23] | Plant response rating, Nutsedge, Yellow [11, 16] | Plant response rating, Johnsongrass [12, 14] | Plant response rating, Johnsongrass [12, 16]
